Data from patent US12568967B2, “Compositions comprising pyridine carboxylate herbicides with synthetic auxin herbicides or auxin transport inhibitors” (priority 2018, dated 2026).
Several values for one entry are separate records, joined by “and”; a condition that tells them apart may be missing. Identical values can stand only once. Like-named read-outs stand apart in the source and are kept apart here.

Assays:
Format in all cases: in vivo
[1] = tested on: Helianthus annuus (common sunflower, HELAN); test: Greenhouse postemergence trial HELAN; settings: Compound A 10 g/ha
Description: (§1) Seeds of the desired test plant species were planted in a 90:10% v/v (volume/volume) mixture of PRO-MIX® BX (Premier Tech Horticulture, Quakertown, PA, USA) and PROFILE® GREENS GRADE™ (Profile Products LLC, Buffalo Grove, IL, USA) planting mixture, which typically has a pH of 5.2 to 6.2 and an organic matter content of at least 50 percent, in plastic pots with a surface area of 103.2 square centimeters (cm^2). […] The plants were grown for 7-36 days (d) in a greenhouse with an approximate 14-hour (h) photo-period which was maintained at about 23° C. during the day and 22° C. during the night. Nutrients and water were added on a regular basis and supplemental lighting was provided with overhead metal halide 1000-Watt lamps as necessary. The plants were employed for testing when they reached the second or third true leaf stage.
(§2) Emulsifiable concentrates of each of each pyridine carboxylate herbicide (Compound A or Compound B) were prepared at 100 grams acid equivalent per liter (g ae/L). The emulsifiable concentrates also included a safener, cloquintocet-mexyl, at 120 grams active ingredient per liter (g ai/L), unless otherwise noted below. An aliquot of each emulsifiable concentrate was placed in a 25 mL glass vial and diluted with an aqueous mixture of 1.25% (v/v) ACTIROB® B esterified rapeseed oil (Bayer Crop Science, Research Triangle Park, NC, USA) or MSO® Concentrate with LECI-TECH® methylated soybean oil (Loveland Products, Loveland, CO, USA) to obtain concentrated stock solutions at the highest application rate for each herbicide, based upon a 12 milliliter (mL) application volume at a rate of 187 liters per hectare (L/ha). The concentrated stock solutions were further diluted with an aqueous mixture of 1.25% v/v ACTIROB® B or MSO® Concentrate with LECI-TECH® to obtain stock solutions at reduced application rates for each herbicide. Spray solutions of the herbicide combinations (Compound A or Compound B plus synthetic auxin herbicide or auxin transport inhibitor) were prepared by adding weighed amounts or aliquots of the synthetic auxin herbicide or auxin transport inhibitor to the stock solutions of Compound A or Compound B to form 12-mL spray solutions in two-way combinations.
(§3) The spray solutions were applied to the plant material with an overhead Mandel track sprayer equipped with 8002E nozzles calibrated to deliver 187 L/ha over an application area of 0.503 square meters (m^2) at a spray height of 18 inches (43 centimeters (cm)) above the average plant canopy. Control plants were sprayed in the same manner with the solvent blank. All pyridine carboxylate herbicide (component a) application rates are given as “g ae/ha” and all synthetic auxin herbicide or auxin transport inhibitor (component b) application rates are given as “g ai/ha.”
(§4) The treated plants and control plants were placed in a greenhouse as described above and watered by sub-irrigation to prevent wash-off of the test compounds. After 20-22 d, the condition of the test plants as compared with that of the control plants was determined visually and scored on a scale of 0 to 100 percent where 0 corresponds to no injury and 100 corresponds to complete kill.

[2] = tested on: Kochia scoparia (kochia, KCHSC); test: Greenhouse postemergence trial KCHSC
[3] = tested on: Glycine max (volunteer soybean, GLXMA); test: Greenhouse postemergence trial GLXMA; settings: Compound A 10 g/ha
Description: as §1, §2, §3, §4

[4] = tested on: Anthemis arvensis (field chamomile, ANTAR); test: Greenhouse postemergence trial ANTAR; settings: ANTAR; for % visual injury Obs: alone; for % visual injury, Obs: applied alone
[5] = tested on: Digitaria sanguinalis (large crabgrass, DIGSA); test: Greenhouse postemergence trial DIGSA; settings: Compound A 10 g/ha
Description: as §1, §2, §3, §4

[6] = tested on: Oryza sativa (common rice, ORYSA); test: Greenhouse postemergence trial ORYSA; settings: Compound A 10 g/ha
Description: as §1
Emulsifiable concentrates of each of each pyridine carboxylate herbicide (Compound A or Compound B) were prepared at 100 grams acid equivalent per liter (g ae/L). […]
as §4

[7] = tested on: Cirsium arvense (Canadian thistle, CIRAR); test: Greenhouse postemergence trial CIRAR
[8] = tested on: Cyperus esculentus (nutsedge, CYPES); test: Greenhouse postemergence trial CYPES; settings: Compound A 10 g/ha
Description: as §1
(§5) Emulsifiable concentrates of each of each pyridine carboxylate herbicide (Compound A or Compound B) were prepared at 100 grams acid equivalent per liter (g ae/L). The emulsifiable concentrates also included a safener, cloquintocet-mexyl, at 120 grams active ingredient per liter (g ai/L), unless otherwise noted below. An aliquot of each emulsifiable concentrate was placed in a 25 mL glass vial and diluted with an aqueous mixture of 1.25% (v/v) ACTIROB® B esterified rapeseed oil (Bayer Crop Science, Research Triangle Park, NC, USA) or MSO® Concentrate with LECI-TECH® methylated soybean oil (Loveland Products, Loveland, CO, USA) to obtain concentrated stock solutions at the highest application rate for each herbicide, based upon a 12 milliliter (mL) application volume at a rate of 187 liters per hectare (L/ha). The concentrated stock solutions were further diluted with an aqueous mixture of 1.25% v/v ACTIROB® B or MSO® Concentrate with LECI-TECH® to obtain stock solutions at reduced application rates for each herbicide. Spray solutions of the herbicide combinations (Compound A or Compound B plus synthetic auxin herbicide or auxin transport inhibitor) were prepared by adding weighed amounts or aliquots of the synthetic auxin herbicide or auxin transport inhibitor to the stock solutions of Compound A or Compound B to form 12-mL spray solutions in two-way combinations. […]
as §4

[9] = tested on: Sorghum vulgare (grain sorghum, SORVU); test: Greenhouse postemergence trial SORVU; settings: Compound A 10 g/ha
Description: as §1, §5, §4

[10] = tested on: Papaver rhoeas (corn poppy), herbicide-resistant (PAPRH-R); test: Greenhouse postemergence trial PAPRH-R; settings: PAPRH-R; for % visual injury, Obs: applied alone
Description: as §1, §2, §3, §4

[11] = tested on: Triticum aestivum (spring wheat, TRZAS)
[12] = tested on: Hordeum vulgare (winter barley, HORVW); test: Greenhouse postemergence crop phytotoxicity HORVW; settings: for % visual injury Obs / visual injury, Obs / % visual injury, Obs: HORVW; for % visual injury, Obs: applied alone; for % visual injury (crop phytotoxicity): c1-3 Compound A 7.5/10/15
[13] = tested on: Brassica napus (spring rape, BRSNN); test: Greenhouse postemergence trial BRSNN
Description: The plants were grown for 7-36 days (d) in a greenhouse with an approximate 14-hour (h) photo-period which was maintained at about 23° C. during the day and 22° C. during the night. Nutrients and water were added on a regular basis and supplemental lighting was provided with overhead metal halide 1000-Watt lamps as necessary. The plants were employed for testing when they reached the second or third true leaf stage.
The emulsifiable concentrates also included a safener, cloquintocet-mexyl, at 120 grams active ingredient per liter (g ai/L), unless otherwise noted below.
Control plants were sprayed in the same manner with the solvent blank. All pyridine carboxylate herbicide (component a) application rates are given as “g ae/ha” and all synthetic auxin herbicide or auxin transport inhibitor (component b) application rates are given as “g ai/ha.”
as §4

[14] = tested on: Ipomoea hederacea (ivyleaf morningglory, IPOHE); test: Greenhouse postemergence trial IPOHE; settings: Compound A 10 g/ha
Description: as §1, §2, §3, §4

[15] = tested on: Veronica persica (bird's-eye speedwell, VERPE); test: Greenhouse postemergence trial VERPE; settings: for % visual injury Obs / visual injury, Obs / % visual injury, Obs: VERPE; for % visual injury, Obs: applied alone
[16] = tested on: Stellaria media (chickweed, STEME); test: Greenhouse postemergence trial STEME; settings: for % visual injury Obs: alone
Description: as §1, §2, §3, §4

[17] = Compound A 10 g/ha, without safener
[18] = Triticum aestivum (spring wheat, TRZAS), in vivo

N#CCOC(=O)c1nc(-c2ccc3cc[nH]c3c2F)c(F)c(N)c1Cl [Compound A, cyanomethyl 4-amino-3-chloro-5-fluoro-6-(7-fluoro-1H-indol-6-yl)pyridine-2-carboxylate]
HELAN Obs (% visual injury) ([1]; without safener): 100%
% visual injury, Obs ([1]; HELAN): 100%
pest or weed control at […] ([2]; Bassia scoparia, post-emergence, KCHSC, Compound A 7.5 g/ha, read-out: % visual injury Obs): 70%
pest or weed control at 10 g/ha ([2]; Bassia scoparia, post-emergence, KCHSC, Compound A 10 g/ha, read-out: % visual injury Obs): 75%
pest or weed control at 15 g/ha ([2]; Bassia scoparia, post-emergence, KCHSC, Compound A 15 g/ha, read-out: % visual injury Obs): 80%
KCHSC Obs (% visual injury) ([2]; Compound A 10 g/ha): 65% and 55%
KCHSC % visual injury Obs ([2]; Compound A 10 g/ha (Table 42)): 65%
KCHSC % visual injury Obs ([2]; Compound A 10 g/ha (Table 43)): 65%
KCHSC % visual injury Obs ([2]; Compound A 10 g/ha (Table 44)): 65%
KCHSC Obs (% visual injury) [2, 17]: 88%
% visual injury Obs ([2]; KCHSC, Compound A 10 g/ha): 75%
% visual injury, Obs ([2]; KCHSC, Compound A 10 g/ha): 65% and 70% and 88%
visual injury, Obs ([2]; KCHSC, Compound A 10 g/ha alone): 75%
visual injury, Obs ([2]; KCHSC, Compound A 15 g/ha alone): 80%
% visual injury (Obs) ([2]; KCHSC, alone 10 g/ha): 68% and 55% and 70%
% visual injury Obs ([2]; KCHSC, alone 10 g/ha): 75%
% visual injury Obs ([2]; KCHSC, alone, 15 g/ha): 80%
% visual injury, Obs ([2]; KCHSC, applied alone, 10 g/ha): 75% and 70%
% visual injury, Obs ([2]; KCHSC, applied alone, 15 g/ha): 80%
GLXMA Obs (% visual injury) ([3]; without safener): 85%
% visual injury, Obs ([3]; GLXMA): 85%
visual injury, Obs ([4]; Compound A 10 g/ha alone): 100%
visual injury, Obs ([4]; Compound A 15 g/ha alone): 100%
% visual injury Obs ([4]; 10 g/ha): 100%
% visual injury Obs ([4]; 15 g/ha): 100%
% visual injury, Obs ([4]; 10 g/ha): 100%
% visual injury, Obs ([4]; 15 g/ha): 100%
pest or weed control at […] ([4]; Anthemis arvensis, post-emergence, Compound A 7.5 g/ha, read-out: % visual injury Obs): 95%
pest or weed control at 10 g/ha ([4]; Anthemis arvensis, post-emergence, Compound A 10 g/ha, read-out: % visual injury Obs): 100%
pest or weed control at 15 g/ha ([4]; Anthemis arvensis, post-emergence, Compound A 15 g/ha, read-out: % visual injury Obs): 100%
DIGSA Obs (% visual injury) [5]: 25%
DIGSA Obs (% visual injury) ([5]; without safener): 8%
% visual injury, Obs ([5]; DIGSA): 8%
ORYSA Obs (% visual injury) [6]: 10%
% visual injury, Obs ([7]; CIRAR, Compound A 10 g/ha): 20% and 30% and 28%
visual injury, Obs ([7]; CIRAR, Compound A 10 g/ha alone): 50%
visual injury, Obs ([7]; CIRAR, Compound A 15 g/ha alone): 60%
% visual injury (Obs) ([7]; CIRAR, alone 10 g/ha): 23% and 30%
% visual injury Obs ([7]; CIRAR, alone 10 g/ha): 50%
% visual injury Obs ([7]; CIRAR, alone, 15 g/ha): 60%
% visual injury, Obs ([7]; CIRAR, applied alone, 10 g/ha): 50% and 55%
% visual injury, Obs ([7]; CIRAR, applied alone, 15 g/ha): 60%
pest or weed control at […] ([7]; Cirsium arvense, post-emergence, CIRAR, Compound A 7.5 g/ha, read-out: % visual injury Obs): 30%
pest or weed control at 10 g/ha ([7]; Cirsium arvense, post-emergence, CIRAR, Compound A 10 g/ha, read-out: % visual injury Obs): 50%
pest or weed control at 15 g/ha ([7]; Cirsium arvense, post-emergence, CIRAR, Compound A 15 g/ha, read-out: % visual injury Obs): 60%
CIRAR Obs (% visual injury) ([7]; Compound A 10 g/ha): 20% and 23%
CIRAR % visual injury Obs ([7]; Compound A 10 g/ha (Table 42)): 20%
CIRAR % visual injury Obs ([7]; Compound A 10 g/ha (Table 43)): 20%
CIRAR % visual injury Obs ([7]; Compound A 10 g/ha (Table 44)): 20%
CIRAR Obs (% visual injury) [7, 17]: 28%
% visual injury, Obs ([8]; CYPES): 0%
CYPES Obs (% visual injury) ([8]; without safener): 0%
SORVU Obs (% visual injury) ([9]; without safener): 0%
% visual injury, Obs ([9]; SORVU): 0%
% visual injury Obs ([10]; Compound A 10 g/ha): 90%
visual injury, Obs ([10]; Compound A 10 g/ha alone): 90%
visual injury, Obs ([10]; Compound A 15 g/ha alone): 100%
% visual injury Obs ([10]; alone, 10 g/ha): 90%
% visual injury Obs ([10]; alone, 15 g/ha): 100%
% visual injury, Obs ([10]; 10 g/ha): 90%
% visual injury, Obs ([10]; 15 g/ha): 100%
pest or weed control at […] ([10]; Papaver rhoeas, post-emergence, Compound A 7.5 g/ha, read-out: % visual injury Obs): 85%
pest or weed control at 10 g/ha ([10]; Papaver rhoeas, post-emergence, Compound A 10 g/ha, read-out: % visual injury Obs): 90%
pest or weed control at 15 g/ha ([10]; Papaver rhoeas, post-emergence, Compound A 15 g/ha, read-out: % visual injury Obs): 100%
TRZAS Obs (% visual injury) ([11]; Compound A 10 g/ha): 0%
TRZAS % visual injury Obs ([11]; Compound A 10 g/ha (Table 42)): 0%
TRZAS % visual injury Obs ([11]; Compound A 10 g/ha (Table 43)): 0%
TRZAS % visual injury Obs ([11]; Compound A 10 g/ha (Table 44)): 0%
% visual injury Obs ([11]; TRZAS, Compound A 10 g/ha): 0%
% visual injury, Obs ([11]; TRZAS, Compound A 10 g/ha): 0%
visual injury, Obs ([11]; TRZAS, Compound A 10 g/ha alone): 0%
% visual injury Obs ([11]; TRZAS, Compound A 15 g/ha): 0%
visual injury, Obs ([11]; TRZAS, Compound A 15 g/ha alone): 0%
% visual injury (Obs) ([11]; TRZAS, alone 10 g/ha): 0%
% visual injury Obs ([11]; TRZAS, alone 10 g/ha): 0%
% visual injury Obs ([11]; TRZAS, alone, 15 g/ha): 0%
% visual injury, Obs ([11]; TRZAS, applied alone, 10 g/ha): 0%
% visual injury, Obs ([11]; TRZAS, applied alone, 15 g/ha): 0%
% visual injury (crop phytotoxicity) [11, 18]: 0%
% visual injury, Obs (crop phytotoxicity) [11, 18]: 0%
% visual injury (crop phytotoxicity) ([11]; c1-2 Compound A 7.5/10, c3 Quinclorac 140, c4-5 A 7.5/10 + Quinclorac 140 g/ha): 0%
% visual injury (crop phytotoxicity) ([11]; c1-3 Compound A 7.5/10/15, c4-5 Fluroxypyr-MHE 100/140, c6-8, c9-11 A 7.5/10/15 + Fluroxypyr-MHE 100, 140 g/ha): 0%
% visual injury (crop phytotoxicity) ([11]; c1-3 Compound A 7.5/10/15, c4 Aminopyralid 5, c5-7 A 7.5/10/15 + Aminopyralid 5 g/ha): 0%
% visual injury (crop phytotoxicity) ([11]; c1-3 Compound A 7.5/10/15, c4 Halauxifen-methyl 6, c5-7 A 7.5/10/15 + Halauxifen-methyl 6 g/ha): 0%
% visual injury Obs ([12]; Compound A 10 g/ha): 0%
visual injury, Obs ([12]; Compound A 10 g/ha alone): 0%
% visual injury Obs ([12]; Compound A 15 g/ha): 0%
visual injury, Obs ([12]; Compound A 15 g/ha alone): 0%
% visual injury Obs ([12]; alone, 10 g/ha): 0%
% visual injury Obs ([12]; alone, 15 g/ha): 0%
% visual injury, Obs ([12]; 10 g/ha): 0%
% visual injury, Obs ([12]; 15 g/ha): 0%
% visual injury (crop phytotoxicity) ([12]; c4-5 Fluroxypyr-MHE 100/140, c6-8, c9-11 A 7.5/10/15 + Fluroxypyr-MHE 100, 140 g/ha): 0%
% visual injury (crop phytotoxicity) ([12]; c4-6 Clopyralid 30/60/120, c7-9, c10-12, c13-15 A 7.5/10/15 + Clopyralid 30, 60, 120 g/ha): 0%
% visual injury (crop phytotoxicity) ([12]; c4 Aminopyralid 5, c5-7 A 7.5/10/15 + Aminopyralid 5 g/ha): 0%
% visual injury (crop phytotoxicity) ([12]; c4 Halauxifen-methyl 6, c5-7 A 7.5/10/15 + Halauxifen-methyl 6 g/ha): 0%
% visual injury, Obs ([13]; BRSNN, Compound A 10 g/ha): 55%
% visual injury (Obs) ([13]; BRSNN, alone 10 g/ha): 73% and 70%
BRSNN Obs (% visual injury) ([13]; Compound A 10 g/ha): 55% and 83% and 70%
BRSNN % visual injury Obs ([13]; Compound A 10 g/ha (Table 42)): 55%
BRSNN % visual injury Obs ([13]; Compound A 10 g/ha (Table 43)): 55%
BRSNN % visual injury Obs ([13]; Compound A 10 g/ha (Table 44)): 55%
IPOHE Obs (% visual injury) ([14]; without safener): 15%
% visual injury, Obs ([14]; IPOHE): 15%
% visual injury Obs ([15]; Compound A 10 g/ha): 85%
visual injury, Obs ([15]; Compound A 10 g/ha alone): 85%
% visual injury Obs ([15]; Compound A 15 g/ha): 95%
visual injury, Obs ([15]; Compound A 15 g/ha alone): 95%
% visual injury Obs ([15]; alone, 10 g/ha): 85%
% visual injury Obs ([15]; alone, 15 g/ha): 95%
% visual injury, Obs ([15]; 10 g/ha): 85%
% visual injury, Obs ([15]; 15 g/ha): 95%
pest or weed control at […] ([15]; Veronica persica, post-emergence, VERVE, Compound A 7.5 g/ha, read-out: % visual injury Obs): 80%
pest or weed control at 10 g/ha ([15]; Veronica persica, post-emergence, VERVE, Compound A 10 g/ha, read-out: % visual injury Obs): 85%
pest or weed control at 15 g/ha ([15]; Veronica persica, post-emergence, VERVE, Compound A 15 g/ha, read-out: % visual injury Obs): 95%
STEME Obs (% visual injury) [16, 17]: 88%
% visual injury, Obs ([16]; STEME, Compound A 10 g/ha): 88%
visual injury, Obs ([16]; STEME, Compound A 10 g/ha alone): 70%
visual injury, Obs ([16]; STEME, Compound A 15 g/ha alone): 100%
% visual injury Obs ([16]; STEME, 10 g/ha): 70%
% visual injury Obs ([16]; STEME, 15 g/ha): 100%
% visual injury, Obs ([16]; STEME, applied alone, 10 g/ha): 70%
% visual injury, Obs ([16]; STEME, applied alone, 15 g/ha): 100%
pest or weed control at […] ([16]; Stellaria media, post-emergence, STEME, Compound A 7.5 g/ha, read-out: % visual injury Obs): 65%
pest or weed control at 10 g/ha ([16]; Stellaria media, post-emergence, STEME, Compound A 10 g/ha, read-out: % visual injury Obs): 70%
pest or weed control at 15 g/ha ([16]; Stellaria media, post-emergence, STEME, Compound A 15 g/ha, read-out: % visual injury Obs): 100%
